Tested on: Mycoplasma pneumoniae strain M129 (ATCC 29342)
Assay: Time-kill curves
Type: cell-based
Parameters: M. pneumoniae count in time-kill curve: unit not given here
Procedure: Mycoplasma pneumoniae strain M129 (ATCC 29342) was obtained from American Type Culture Collection (Manassas, VA, United States) and cultured at 37°C in the presence of 5% CO2 in the modified SP-4 liquid medium (pH 7.4) containing 2.1% (w/v) CM1166 mycoplasma broth base medium (Oxoid, Hants, United Kingdom), 20% (v/v) fetal bovine serum (FBS, Bioexplorer, CO, United States), 0.4% yeast extract (Oxoid), 0.55% (w/v) CMRL 1066 w/L-glutamine culture media powder (MyBioSource, San Diego, CA, United States), 1% D-glucose (Macklin) and 0.004% phenol red (Macklin). […] The solid medium is based on the above formula with the addition of 1% agar, and the characteristic fried egg-like colonies were used for experiments following incubation for 7 d on plates.
The tubes were incubated at 37°C in 5% CO2 for 72 h, and 200 µL of the culture was removed every 12 h for 10-fold serial dilutions. The diluted cultures were plated on plates for further culture and counted after 7 d. The experiment was repeated three times.

## O=C(O)c1cn(C2CC2)c2cc(N3CCNCC3)c(F)cc2c1=O [ciprofloxacin]
1×MIC, time 0
  M. pneumoniae count in time-kill curve: 7.07
1×MIC, time 12
  M. pneumoniae count in time-kill curve: 6.346
1×MIC, time 24
  M. pneumoniae count in time-kill curve: 6.462
1×MIC, time 36
  M. pneumoniae count in time-kill curve: 6.137
1×MIC, time 48
  M. pneumoniae count in time-kill curve: 6.414
1×MIC, time 60
  M. pneumoniae count in time-kill curve: 6.605
1×MIC, time 72
  M. pneumoniae count in time-kill curve: 5.901
2×MIC, time 0
  M. pneumoniae count in time-kill curve: 7.07
2×MIC, time 12
  M. pneumoniae count in time-kill curve: 6.0302
2×MIC, time 24
  M. pneumoniae count in time-kill curve: 6.128
2×MIC, time 36
  M. pneumoniae count in time-kill curve: 5.661
2×MIC, time 48
  M. pneumoniae count in time-kill curve: 5.8
2×MIC, time 60
  M. pneumoniae count in time-kill curve: 5.6841
2×MIC, time 72
  M. pneumoniae count in time-kill curve: 4.597
4×MIC, time 0
  M. pneumoniae count in time-kill curve: 7.07
4×MIC, time 12
  M. pneumoniae count in time-kill curve: 5.551
4×MIC, time 24
  M. pneumoniae count in time-kill curve: 5.334
4×MIC, time 36
  M. pneumoniae count in time-kill curve: 5.292
4×MIC, time 48
  M. pneumoniae count in time-kill curve: 5.137
4×MIC, time 60
  M. pneumoniae count in time-kill curve: 5.179
4×MIC, time 72
  M. pneumoniae count in time-kill curve: 4.3324
8×MIC, time 0
  M. pneumoniae count in time-kill curve: 7.07
8×MIC, time 12
  M. pneumoniae count in time-kill curve: 5.507
8×MIC, time 24
  M. pneumoniae count in time-kill curve: 4.574
8×MIC, time 36
  M. pneumoniae count in time-kill curve: 4.144
8×MIC, time 48
  M. pneumoniae count in time-kill curve: 4.238
8×MIC, time 60
  M. pneumoniae count in time-kill curve: 3.8395
8×MIC, time 72
  M. pneumoniae count in time-kill curve: 3.628
16×MIC, time 0
  M. pneumoniae count in time-kill curve: 7.07
16×MIC, time 12
  M. pneumoniae count in time-kill curve: 5.235
16×MIC, time 24
  M. pneumoniae count in time-kill curve: 4.279
16×MIC, time 36
  M. pneumoniae count in time-kill curve: 3.946
16×MIC, time 48
  M. pneumoniae count in time-kill curve: 3.861
16×MIC, time 60
  M. pneumoniae count in time-kill curve: 3.824
16×MIC, time 72
  M. pneumoniae count in time-kill curve: 3.354
32×MIC, time 0
  M. pneumoniae count in time-kill curve: 7.07
32×MIC, time 12
  M. pneumoniae count in time-kill curve: 4.952
32×MIC, time 24
  M. pneumoniae count in time-kill curve: 4.119
32×MIC, time 36
  M. pneumoniae count in time-kill curve: 3.694
32×MIC, time 48
  M. pneumoniae count in time-kill curve: 3.873
32×MIC, time 60
  M. pneumoniae count in time-kill curve: 3.5568
32×MIC, time 72
  M. pneumoniae count in time-kill curve: 3.233
64×MIC, time 0
  M. pneumoniae count in time-kill curve: 7.07
64×MIC, time 12
  M. pneumoniae count in time-kill curve: 5.252
64×MIC, time 24
  M. pneumoniae count in time-kill curve: 3.933
64×MIC, time 36
  M. pneumoniae count in time-kill curve: 3.756
64×MIC, time 48
  M. pneumoniae count in time-kill curve: 3.771
64×MIC, time 60
  M. pneumoniae count in time-kill curve: 3.185
64×MIC, time 72
  M. pneumoniae count in time-kill curve: 2.981
